Source: patent EP0465481B1, “NEW S[…] DERIVATIVES OF TEICOPLANIN” (GRUPPO LEPETIT S.p.A., priority 1989, dated 1990)

Tested on: Pseudomonas aeruginosa
Experiment: MIC, standard two-fold dilution test in microtiter
Type: cell-based
Settings: against Pseudomonas aeruginosa
Procedure: Broth cultures are diluted enough so that the final inoculum is about 10^4 colony forming units/ml (CFU/mi).

For teicoplanin, the MIC was at least 32 microgram/ml.
